Assay results as given in patent publication US11690810B2, “Combination treatment of bacterial infection” (The Chinese University of Hong Kong, priority 2018, dated 2023).

Columns and labels:
[1] = system: Panton-Valentine leukocidin positive CA-MRSA strain ST30; type: in vivo, Balb/c mice; conditions: ST30; used alone at 60 and 120 mg/kg
[2] = system: internalization of MRSA strain JE-2 by HaCat keratinocytes; assay: Internalization of S. aureus by HaCaT keratinocytes; type: cell-based, Staphylococcus aureus
[3] = system: S. aureus SA-APH3′ (APH3), resistant to kanamycin; assay: MIC and checkerboard (FIC) assay

Q: `O=C(O[C@@H]1Cc2c(O)cc(O)cc2O[C@@H]1c1ccc(O)c(O)c1)c1cc(O)c(O)c(O)c1` [ECG, epicatechin gallate] was tested. Which “log CFU counts and survival rates” value [1] did it give?
A: could not reduce the log CFU counts or improve the survival rates

Q: What about the “percentage of internalized bacteria by HaCaT cells” value (from here on “percentage of internalized bacteria”) ([2]; ECG 4 μg/ml) of the same compound?
A: 62.2±2.7%

Q: And the “percentage of internalized bacteria” value ([2]; ECG 8 μg/ml)?
A: 62.8±10.5%

Q: What about the “percentage of internalized bacteria” value ([2]; ECG 16 μg/ml) of the same compound?
A: 53.7±6.3%

Q: And the “percentage of internalized bacteria” value ([2]; ECG 32 μg/ml)?
A: 42.2±8.9%

Q: What about the “percentage of internalized bacteria” value ([2]; ECG 64 μg/ml) of the same compound?
A: 34.7±4.5%

Q: And the FIC ([3]; APH3, Kuraridin with ECG)?
A: 0.0009

Q: And the MIC combine ([3]; APH3, Kuraridin with ECG)?
A: 0.5 µg/mL

Q: What about the MIC90 ([3]; Staphylococcus aureus) of the same compound?
A: 4 µg/mL

Q: And the MIC99 ([3]; Staphylococcus aureus, read-out: MIC 99.9)?
A: > 512 µg/mL

Q: What about the MIC ([3]; Staphylococcus aureus, read-out: MIC alone) of the same compound?
A: 512 µg/mL
